Reference: PubChem BioAssay AID298 (DTP/NCI, 2004)
“And” between values parts separate entries of the source, which are not always exact repeats. Equal values may be shown once. Inconclusive results are not listed.

System: MX-1 breast xenograft, intrarenal, nude mice, tumor weight
Test: NCI In Vivo Anticancer Drug Screen. Data for tumor model Human Mammary Carcinoma MX-1 Xenograft (intrarenal inoculation) in NU/NU BALB/C (nude) mice
Conditions: endpoint: mean tumor weight change, higher = larger tumour
Outline: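 Mice w/ transplanted tumors, drug vs vehicle; endpoint survival or tumor size; value = T/C.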

Cc1c(N)nc(C(CC(N)=O)NCC(N)C(N)=O)nc1C(=O)NC(C(=O)NC(C)C(O)C(C)C(=O)NC(C(=O)NCCc1nc(-c2nc(C(=O)NCCCNC(C)c3ccccc3)cs2)cs1)C(C)O)C(OC1OC(CO)C(O)C(O)C1OC1OC(CO)C(O)C(OC(N)=O)C1O)c1cnc[nH]1 (stereo not given)
T/C (dose: 8.0 mg/kg/injection, schedule: Q01DX010 (sc), vehicle: saline): 69 % of control
T/C (dose: 16.0 mg/kg/injection, schedule: Q01DX010 (sc), vehicle: saline): 55 % of control
T/C (dose: 32.0 mg/kg/injection, schedule: Q01DX010 (sc), vehicle: saline): 43 % of control

CCCC(=O)OCc1cc(=O)n(C)c2c3c4c(cc12)c(C)cc(=O)n4CO3
T/C (dose: 50.0 mg/kg/injection, schedule: Q01DX010 (sc), vehicle: Klucel (hydroxypropylcellulose) (HPC)): 79 % of control
T/C (dose: 100.0 mg/kg/injection, schedule: Q01DX010 (sc), vehicle: Klucel (hydroxypropylcellulose) (HPC)): 75 % of control
T/C (dose: 200.0 mg/kg/injection, schedule: Q01DX010 (sc), vehicle: Klucel (hydroxypropylcellulose) (HPC)): 64 % of control
T/C (dose: 400.0 mg/kg/injection, schedule: Q01DX010 (sc), vehicle: Klucel (hydroxypropylcellulose) (HPC)): 66 % of control
T/C (dose: 800.0 mg/kg/injection, schedule: Q01DX010 (sc), vehicle: Klucel (hydroxypropylcellulose) (HPC)): 61 % of control

O=P1(N(CCCl)CCCl)NCCCO1 (stereo not given)
T/C (dose: 25.0 mg/kg/injection, schedule: Q01DX010 (sc), vehicle: saline): 3 % of control
T/C (dose: 25.0 mg/kg/injection, schedule: Q04DX003 (ip), vehicle: saline): 1 % of control and -23 % of control
T/C (dose: 50.0 mg/kg/injection, schedule: Q01DX010 (sc), vehicle: saline): -11 % of control
T/C (dose: 50.0 mg/kg/injection, schedule: Q04DX003 (ip), vehicle: saline): -88 % of control and -100 % of control
T/C (dose: 100.0 mg/kg/injection, schedule: Q04DX003 (sc), vehicle: saline): -95 % of control
T/C (dose: 200.0 mg/kg/injection, schedule: Q04DX003 (ip), vehicle: saline): -73 % of control

COc1cc2c(c3c1c(=O)c1ccccc1n3C)C=CC(C)(C)O2
T/C (dose: 37.5 mg/kg/injection, schedule: Q04DX003 (ip), vehicle: Klucel (hydroxypropylcellulose) (HPC)): 54 % of control
T/C (dose: 75.0 mg/kg/injection, schedule: Q04DX003 (ip), vehicle: Klucel (hydroxypropylcellulose) (HPC)): 40 % of control
T/C (dose: 150.0 mg/kg/injection, schedule: Q04DX003 (ip), vehicle: Klucel (hydroxypropylcellulose) (HPC)): 21 % of control

OCCN1CCN(CC/C=C2/c3ccccc3Sc3ccc(C(F)(F)F)cc32)CC1
T/C (dose: 30.0 mg/kg/injection, schedule: Q04DX003 (sc), vehicle: saline): 65 % of control
T/C (dose: 60.0 mg/kg/injection, schedule: Q04DX003 (sc), vehicle: saline): 43 % of control and 44 % of control
T/C (dose: 120.0 mg/kg/injection, schedule: Q04DX003 (sc), vehicle: saline): 11 % of control and 33 % of control

CS(C)(O)NC(N)=O
T/C (dose: 150.0 mg/kg/injection, schedule: Q04DX003 (ip), vehicle: water): 119 % of control
T/C (dose: 300.0 mg/kg/injection, schedule: Q04DX003 (ip), vehicle: water): 154 % of control
T/C (dose: 600.0 mg/kg/injection, schedule: Q04DX003 (ip), vehicle: water): 110 % of control
T/C (dose: 1200.0 mg/kg/injection, schedule: Q04DX003 (ip), vehicle: water): 74 % of control

CCCCCCCCCCCCN1C(C)=CS/C1=C\C=C\c1scc(C)[n+]1CCCCCCCCCCCC
T/C (dose: 0.75 mg/kg/injection, schedule: Q04DX003 (ip), vehicle: saline with Tween-80): 91 % of control
T/C (dose: 1.5 mg/kg/injection, schedule: Q04DX003 (ip), vehicle: saline with Tween-80): 89 % of control
T/C (dose: 3.0 mg/kg/injection, schedule: Q04DX003 (ip), vehicle: saline with Tween-80): 28 % of control

Cc1c(O)/c(=C\O)c2nc3c(=O)ccc(C(=O)NCCN(C)C)c3[nH]c2c1=O
T/C (dose: 50.0 mg/kg/injection, schedule: Q04DX003 (ip), vehicle: other): 77 % of control
T/C (dose: 100.0 mg/kg/injection, schedule: Q04DX003 (ip), vehicle: other): 100 % of control
T/C (dose: 200.0 mg/kg/injection, schedule: Q04DX003 (ip), vehicle: other): 44 % of control
